Assay results as given in PubChem BioAssay (NCI).
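A five-concentration, 48-hour dose response in 96-well plates underlies each endpoint, interpolated linearly between surrounding concentrations. GI50: concentration for 50% inhibition of growth. At the TGI there is no net growth.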

How the values were obtained:
Test in all cases: inhibition of tumour cell growth, NCI panel, 48 h; in the data active means GI50 below about 0.43 µM; inactive means the rest
786-0 renal = tested on: 786-0 renal
A498 renal = tested on: A498 renal
A549 NSCLC = tested on: A549 NSCLC
ACHN renal = tested on: ACHN renal
BT-549 breast = tested on: BT-549 breast
CAKI-1 renal = tested on: CAKI-1 renal
CCRF-CEM leukemia = tested on: CCRF-CEM leukemia
COLO 205 colon = tested on: COLO 205 colon
DU-145 prostate = tested on: DU-145 prostate
HCC-2998 colon = tested on: HCC-2998 colon
HCT-116 colon = tested on: HCT-116 colon
HCT-15 colon = tested on: HCT-15 colon
HL-60(TB) leukemia = tested on: HL-60(TB) leukemia
HOP-62 NSCLC = tested on: HOP-62 NSCLC
HOP-92 NSCLC = tested on: HOP-92 NSCLC
HS 578T breast = tested on: HS 578T breast
HT29 colon = tested on: HT29 colon
IGROV1 ovarian = tested on: IGROV1 ovarian
K-562 leukemia = tested on: K-562 leukemia
KM12 colon = tested on: KM12 colon
LOX IMVI melanoma = tested on: LOX IMVI melanoma
M14 melanoma = tested on: M14 melanoma
MALME-3M melanoma = tested on: MALME-3M melanoma
MCF7 breast = tested on: MCF7 breast
MDA-MB-231 breast = tested on: MDA-MB-231 breast
MDA-MB-435 = tested on: MDA-MB-435
MOLT-4 leukemia = tested on: MOLT-4 leukemia
NCI-H226 lung = tested on: NCI-H226 lung
NCI-H23 lung = tested on: NCI-H23 lung
NCI-H460 lung = tested on: NCI-H460 lung
NCI-H522 lung = tested on: NCI-H522 lung
NCI/ADR-RES ovarian = tested on: NCI/ADR-RES ovarian
OVCAR-3 ovarian = tested on: OVCAR-3 ovarian
OVCAR-4 ovarian = tested on: OVCAR-4 ovarian
OVCAR-5 ovarian = tested on: OVCAR-5 ovarian
OVCAR-8 ovarian = tested on: OVCAR-8 ovarian
PC-3 prostate = tested on: PC-3 prostate
RPMI-8226 leukemia = tested on: RPMI-8226 leukemia
RXF 393 renal = tested on: RXF 393 renal
SF-268 CNS = tested on: SF-268 CNS
SF-295 CNS = tested on: SF-295 CNS
SF-539 CNS = tested on: SF-539 CNS
SK-MEL-2 melanoma = tested on: SK-MEL-2 melanoma
SK-MEL-28 melanoma = tested on: SK-MEL-28 melanoma
SK-MEL-5 melanoma = tested on: SK-MEL-5 melanoma
SK-OV-3 ovarian = tested on: SK-OV-3 ovarian
SN12C renal = tested on: SN12C renal
SNB-19 CNS = tested on: SNB-19 CNS
SNB-75 CNS = tested on: SNB-75 CNS
SR leukemia = tested on: SR leukemia
SW-620 colon = tested on: SW-620 colon
T-47D breast = tested on: T-47D breast
TK-10 renal = tested on: TK-10 renal
U251 CNS = tested on: U251 CNS
UACC-257 melanoma = tested on: UACC-257 melanoma
UACC-62 melanoma = tested on: UACC-62 melanoma
UO-31 renal = tested on: UO-31 renal

Nc1c(C(=O)c2ccc(CCCN3CCOCC3)cc2)cnn1-c1ccc(F)cc1
> 25 µM: TGI (786-0 renal) | TGI (A498 renal) | TGI (A549 NSCLC) | TGI (ACHN renal) | TGI (BT-549 breast) | TGI (CAKI-1 renal) | TGI (CCRF-CEM leukemia) | TGI (COLO 205 colon) | TGI (DU-145 prostate) | TGI (HCC-2998 colon) | TGI (HCT-116 colon) | TGI (HCT-15 colon) | TGI (HL-60(TB) leukemia) | TGI (HOP-62 NSCLC) | TGI (HOP-92 NSCLC) | TGI (HS 578T breast) | TGI (HT29 colon) | TGI (IGROV1 ovarian) | TGI (K-562 leukemia) | TGI (KM12 colon) | TGI (LOX IMVI melanoma) | TGI (M14 melanoma) | TGI (MALME-3M melanoma) | TGI (MCF7 breast) | TGI (MDA-MB-231 breast) | TGI (MDA-MB-435) | TGI (MOLT-4 leukemia) | TGI (NCI-H226 lung) | TGI (NCI-H23 lung) | TGI (NCI-H460 lung) | TGI (NCI-H522 lung) | TGI (NCI/ADR-RES ovarian) | TGI (OVCAR-3 ovarian) | TGI (OVCAR-4 ovarian) | TGI (OVCAR-5 ovarian) | TGI (OVCAR-8 ovarian) | TGI (PC-3 prostate) | TGI (RPMI-8226 leukemia) | TGI (RXF 393 renal) | TGI (SF-268 CNS) | TGI (SF-295 CNS) | TGI (SF-539 CNS) | TGI (SK-MEL-2 melanoma) | TGI (SK-MEL-28 melanoma) | TGI (SK-OV-3 ovarian) | TGI (SN12C renal) | TGI (SNB-19 CNS) | TGI (SNB-75 CNS) | TGI (SR leukemia) | TGI (SW-620 colon) | TGI (T-47D breast) | TGI (TK-10 renal) | TGI (U251 CNS) | TGI (UACC-257 melanoma) | TGI (UACC-62 melanoma) | TGI (UO-31 renal)
inactive: GI50 (786-0 renal) > 25 µM | GI50 (A498 renal) > 14.5 µM | GI50 (A549 NSCLC) > 25 µM | GI50 (ACHN renal) > 25 µM | GI50 (BT-549 breast) > 25 µM | GI50 (CAKI-1 renal) > 25 µM | GI50 (CCRF-CEM leukemia) > 25 µM | GI50 (COLO 205 colon) > 25 µM | GI50 (DU-145 prostate) > 25 µM | GI50 (HCC-2998 colon) > 25 µM | GI50 (HCT-116 colon) > 25 µM | GI50 (HCT-15 colon) > 25 µM | GI50 (HL-60(TB) leukemia) > 25 µM | GI50 (HOP-62 NSCLC) > 25 µM | GI50 (HOP-92 NSCLC) 3.22 µM | GI50 (HS 578T breast) > 25 µM | GI50 (HT29 colon) > 25 µM | GI50 (IGROV1 ovarian) > 25 µM | GI50 (K-562 leukemia) 9.33 µM | GI50 (KM12 colon) > 25 µM | GI50 (LOX IMVI melanoma) > 25 µM | GI50 (M14 melanoma) > 25 µM | GI50 (MALME-3M melanoma) > 25 µM | GI50 (MCF7 breast) > 25 µM | GI50 (MDA-MB-231 breast) > 25 µM | GI50 (MDA-MB-435) > 25 µM | GI50 (MOLT-4 leukemia) > 25 µM | GI50 (NCI-H226 lung) > 15.2 µM | GI50 (NCI-H23 lung) > 25 µM | GI50 (NCI-H460 lung) > 25 µM | GI50 (NCI-H522 lung) > 25 µM | GI50 (NCI/ADR-RES ovarian) > 25 µM | GI50 (OVCAR-3 ovarian) 24.3 µM | GI50 (OVCAR-4 ovarian) > 19.1 µM | GI50 (OVCAR-5 ovarian) > 25 µM | GI50 (OVCAR-8 ovarian) > 25 µM | GI50 (PC-3 prostate) > 25 µM | GI50 (RPMI-8226 leukemia) > 15.4 µM | GI50 (RXF 393 renal) > 25 µM | GI50 (SF-268 CNS) > 25 µM | GI50 (SF-295 CNS) > 25 µM | GI50 (SF-539 CNS) > 25 µM | GI50 (SK-MEL-2 melanoma) > 25 µM | GI50 (SK-MEL-28 melanoma) > 25 µM | GI50 (SK-MEL-5 melanoma) 8.01 µM | GI50 (SK-OV-3 ovarian) > 25 µM | GI50 (SN12C renal) > 25 µM | GI50 (SNB-19 CNS) > 25 µM | GI50 (SNB-75 CNS) > 25 µM | GI50 (SR leukemia) > 20.4 µM | GI50 (SW-620 colon) > 25 µM | GI50 (T-47D breast) 10.3 µM | GI50 (TK-10 renal) > 25 µM | GI50 (U251 CNS) > 25 µM | GI50 (UACC-257 melanoma) 24.3 µM | GI50 (UACC-62 melanoma) > 25 µM | GI50 (UO-31 renal) > 25 µM
24.3 µM: TGI (SK-MEL-5 melanoma)
